Measurements published in US20170253601A1, “Substituted Pyrrolidine Compounds” (EPIZYME, INC., priority 2014, published 2017).

Each compound was assayed against T1, SMYD2 (Homo sapiens, UniProt Q9NRG4) (assay: SMYD2 Biochemical Assay (3H-SAM, biotinylated peptide substrate, Flashplate)). Settings: IC50 values are an average of n = 1 to n = 50; read-out: SMYD2 Biochem IC50 (μM)*.
T1 construct: Full length SMYD2 (NP 064582.2) was cloned; His6 (N, cleaved yes); FLAG (N); made in house; host or cells: Sf9 insect cells
T1 sequence (Q9NRG4 whole entry): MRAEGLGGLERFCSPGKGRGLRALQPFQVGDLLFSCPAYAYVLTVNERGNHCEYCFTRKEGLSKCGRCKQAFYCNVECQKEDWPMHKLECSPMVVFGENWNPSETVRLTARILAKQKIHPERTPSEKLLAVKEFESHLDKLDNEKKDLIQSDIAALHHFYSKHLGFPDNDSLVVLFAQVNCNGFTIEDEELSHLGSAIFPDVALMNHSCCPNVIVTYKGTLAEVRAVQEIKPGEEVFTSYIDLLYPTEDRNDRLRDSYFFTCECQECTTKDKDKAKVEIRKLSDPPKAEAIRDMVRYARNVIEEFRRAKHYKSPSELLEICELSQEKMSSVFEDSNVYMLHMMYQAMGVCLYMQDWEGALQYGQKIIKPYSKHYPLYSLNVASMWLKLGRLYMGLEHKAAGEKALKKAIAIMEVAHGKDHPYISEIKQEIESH
Summary of the method: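 Full-length His/FLAG-tagged SMYD2 expressed in Sf9 cells with tag cleaved, 1.5 nM, pre-incubated 30 min at room temperature with compound, then 10 nM 3H-SAM and 60 nM biotinylated peptide added. Buffer 20 mM Bicine pH 7.6, 1 mM TCEP, 0.005% BSG, 0.002% Tween20, 2% DMSO. Stopped with 600 uM cold SAM; 3H-peptide captured on streptavidin Flashplate; IC50 by curve fit.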
`C[C@H]1CN(Cc2nccn2C)C[C@H]1NC(=O)c1cc(C2CC2)on1` (racemic) [compound 305, (±)-cis-5-cyclopropyl-N-{4-methyl-1-[(1-methyl-1H-imidazol-2-yl)methyl]pyrrolidin-3-yl}-1,2-oxazole-3-carboxamide] was tested, and the IC50 was 41.1 µM.
`C[C@H]1CN(Cc2ccnn2C)C[C@H]1NC(=O)c1cc(C2CC2)on1` (racemic) [compound 306, (±)-cis-5-cyclopropyl-N-{4-methyl-1-[(1-methyl-1H-pyrazol-5-yl)methyl]pyrrolidin-3-yl}-1,2-oxazole-3-carboxamide] showed an IC50 of 41.2 µM.
Work on `C[C@H]1CN(c2cccc(Cl)c2)C[C@H]1NC(=O)c1cc(C2CC2)on1` (racemic) [compound 307, (±)-cis-N-[1-(3-chlorophenyl)-4-methylpyrrolidin-3-yl]-5-cyclopropyl-1,2-oxazole-3-carboxamide] yielded an IC50 of over 50 µM.
With `COc1ccc(N2C[C@H](C)[C@H](NC(=O)c3cc(C4CC4)on3)C2)cc1` (racemic) [compound 308, (±)-cis-5-cyclopropyl-N-[1-(4-methoxy-phenyl)-4-methyl-pyrrolidin-3-yl]-1,2-oxazole-3-carboxamide] the IC50 was over 50 µM.
Work on `C[C@@H]1CN(c2cccnc2)C[C@H]1NC(=O)c1cc(C2CC2)on1` (racemic) [compound 309, (±)-trans-5-cyclopropyl-N-[4-methyl-1-(pyridin-3-yl)pyrrolidin-3-yl]-1,2-oxazole-3-carboxamide] yielded an IC50 of over 50 µM.
`C[C@@H]1CN(CC(N)=O)C[C@H]1NC(=O)c1cc(C2CC2)on1` (racemic) [compound 310, (±)-trans-N-[1-(carbamoylmethyl)-4-methylpyrrolidin-3-yl]-5-cyclopropyl-1,2-oxazole-3-carboxamide] showed an IC50 of over 50 µM.
`C[C@@H]1CN(CC(=O)N2CCNCC2)C[C@H]1NC(=O)c1cc(C2CC2)on1` (racemic) [compound 311, (±)-trans-5-cyclopropyl-N-{4-methyl-1-[2-oxo-2-(piperazin-1-yl)ethyl]pyrrolidin-3-yl}-1,2-oxazole-3-carboxamide] was tested, and the IC50 was over 50 µM.
Work on `C[C@@H]1CN(c2ccccn2)C[C@H]1NC(=O)c1cc(C2CC2)on1` (racemic) [compound 312, (±)-trans-5-cyclopropyl-N-[4-methyl-1-(pyridin-2-yl)pyrrolidin-3-yl]-1,2-oxazole-3-carboxamide] yielded an IC50 of over 50 µM.
`C[C@@H]1CN(c2ccncc2)C[C@H]1NC(=O)c1cc(C2CC2)on1` (racemic) [compound 313, (±)-trans-5-cyclopropyl-N-[4-methyl-1-(pyridin-4-yl)pyrrolidin-3-yl]-1,2-oxazole-3-carboxamide] gave an IC50 of over 50 µM.
`C[C@@H]1CN(c2ccnc(N)n2)C[C@H]1NC(=O)c1cc(C2CC2)on1` (racemic) [compound 314, (±)-trans-N-[1-(2-amino-pyrimidin-4-yl)-4-methylpyrrolidin-3-yl]-5-cyclopropyl-1,2-oxazole-3-carboxamide] gave an IC50 of over 50 µM.
`C[C@@H]1CN(c2ncccn2)C[C@H]1NC(=O)c1cc(C2CC2)on1` (racemic) [compound 315, (±)-trans-5-cyclopropyl-N-[4-methyl-1-(pyrimidin-2-yl)pyrrolidin-3-yl]-1,2-oxazole-3-carboxamide] showed an IC50 of over 50 µM.
`C[C@@H]1CN(c2ccncn2)C[C@H]1NC(=O)c1cc(C2CC2)on1` (racemic) [compound 316, (±)-trans-5-cyclopropyl-N-[4-methyl-1-(pyrimidin-4-yl)pyrrolidin-3-yl]-1,2-oxazole-3-carboxamide] was tested, and the IC50 was over 50 µM.
With `CC(c1ccccc1)N1C[C@H](C)[C@H](NC(=O)c2cc(C3CC3)on2)C1` (mixture of isomers) [compound 317, (±)-cis-5-cyclopropyl-N-[4-methyl-1-(1-phenyl-ethyl)pyrrolidin-3-yl]-1,2-oxazole-3-carboxamide] the IC50 was 1.14 µM.
For `C[C@H]1CN(c2ccccn2)C[C@H]1NC(=O)c1cc(C2CC2)on1` (racemic) [compound 318, (±)-cis-5-cyclopropyl-N-[4-methyl-1-(pyridin-2-yl)pyrrolidin-3-yl]-1,2-oxazole-3-carboxamide], the IC50 was over 50 µM.
`C[C@H]1CN(c2ccncc2)C[C@H]1NC(=O)c1cc(C2CC2)on1` (racemic) [compound 319, (±)-cis-5-cyclopropyl-N-[4-methyl-1-(pyridin-4-yl)pyrrolidin-3-yl]-1,2-oxazole-3-carboxamide] showed an IC50 of over 50 µM.
Work on `Cc1nc[nH]c1CN1C[C@H](C)[C@H](NC(=O)c2cc(C3CC3)on2)C1` (racemic) [compound 320, (±)-cis-5-cyclopropyl-N-{4-methyl-1-[(4-methyl-1H-imidazol-5-yl)methyl]pyrrolidin-3-yl}-1,2-oxazole-3-carboxamide] yielded an IC50 of 11.6 µM.
`C[C@H]1CN(Cc2ccc(Cl)cc2Cl)C[C@H]1NC(=O)c1cc(C2CC2)on1` (racemic) [compound 321, (±)-cis-5-cyclopropyl-N-{1-[(2,4-dichloro-phenyl)methyl]-4-methylpyrrolidin-3-yl}-1,2-oxazole-3-carboxamide] gave an IC50 of 4.64 µM.
`C[C@H]1CN(Cc2c(Cl)cccc2Cl)C[C@H]1NC(=O)c1cc(C2CC2)on1` (racemic) [compound 322, (±)-cis-5-cyclopropyl-N-{1-[(2,6-dichloro-phenyl)methyl]-4-methylpyrrolidin-3-yl}-1,2-oxazole-3-carboxamide] was tested, and the IC50 was over 50 µM.
With `C[C@H]1CN(Cc2c[nH]c3cc(Cl)ccc23)C[C@H]1NC(=O)c1cc(C2CC2)on1` (racemic) [compound 324, (±)-cis-N-{1-[(6-chloro-1H-indol-3-yl)methyl]-4-methylpyrrolidin-3-yl}-5-cyclopropyl-1,2-oxazole-3-carboxamide] the IC50 was 9.34 µM.
Compound `CC(=O)Nc1cccc(N2C[C@H](C)[C@H](NC(=O)c3cc(C4CC4)on3)C2)c1` (racemic) [compound 325, (±)-cis-5-cyclopropyl-N-[1-(3-acetamidophenyl)-4-methylpyrrolidin-3-yl]-1,2-oxazole-3-carboxamide] has an IC50 of over 50 µM.
In the case of `Cc1nn(C)cc1CN1C[C@H](C)[C@H](NC(=O)c2cc(C3CC3)on2)C1` (racemic) [compound 326, (±)-cis-5-cyclopropyl-N-{1-[(1,3-dimethyl-1H-pyrazol-4-yl)methyl]-4-methylpyrrolidin-3-yl}-1,2-oxazole-3-carboxamide], the IC50 is reported as 1.67 µM.
`C[C@H]1CN(Cc2ncc[nH]2)C[C@H]1NC(=O)c1cc(C2CC2)on1` (racemic) [compound 327, (±)-cis-5-cyclopropyl-N-[1-(1H-imidazol-2-ylmethyl)-4-methyl-pyrrolidin-3-yl]-1,2-oxazole-3-carboxamide] showed an IC50 of 49.7 µM.
With `C[C@H]1CN(Cc2c[nH]cn2)C[C@H]1NC(=O)c1cc(C2CC2)on1` (racemic) [compound 328, (±)-cis-5-cyclopropyl-N-[1-(1H-imidazol-4-ylmethyl)-4-methyl-pyrrolidin-3-yl]-1,2-oxazole-3-carboxamide] the IC50 was 2.65 µM.
Compound `C[C@H]1CN(Cc2cccc3c2OCO3)C[C@H]1NC(=O)c1cc(C2CC2)on1` (racemic) [compound 331, (±)-cis-N-[1-(2H-1,3-benzodioxol-4-ylmethyl)-4-methyl-pyrrolidin-3-yl]-5-cyclopropyl-1,2-oxazole-3-carboxamide] has an IC50 of 3.57 µM.
`C[C@H]1CN(Cc2ccc3ncccc3c2)C[C@H]1NC(=O)c1cc(C2CC2)on1` (racemic) [compound 332, (±)-cis-5-cyclopropyl-N-[4-methyl-1-(quinolin-6-ylmethyl)pyrrolidin-3-yl]-1,2-oxazole-3-carboxamide] showed an IC50 of 24.2 µM.
`COc1cc(CN2C[C@H](C)[C@H](NC(=O)c3cc(C4CC4)on3)C2)cc(OC)c1` (racemic) [compound 333, (±)-cis-5-cyclopropyl-N-{1-[(3,5-dimethoxy-phenyl)methyl]-4-methylpyrrolidin-3-yl}-1,2-oxazole-3-carboxamide] was tested, and the IC50 was over 50 µM.
Compound `C[C@H]1CN(c2ccnc(N)n2)C[C@H]1NC(=O)c1cc(C2CC2)on1` (racemic) [compound 334, (±)-cis-N-[1-(2-amino-pyrimidin-4-yl)-4-methylpyrrolidin-3-yl]-5-cyclopropyl-1,2-oxazole-3-carboxamide] has an IC50 of over 50 µM.
Work on `CC(=O)Nc1ccccc1N1C[C@H](C)[C@H](NC(=O)c2cc(C3CC3)on2)C1` (racemic) [compound 335, (±)-cis-5-cyclopropyl-N-[1-(2-acetamido-phenyl)-4-methylpyrrolidin-3-yl]-1,2-oxazole-3-carboxamide] yielded an IC50 of over 50 µM.
Compound `C[C@H]1CN(c2cccnc2)C[C@H]1NC(=O)c1cc(C2CC2)on1` (racemic) [compound 336, (±)-cis-5-cyclopropyl-N-[4-methyl-1-(pyridin-3-yl)pyrrolidin-3-yl]-1,2-oxazole-3-carboxamide] has an IC50 of over 50 µM.
For `C[C@H]1CN(CCC2CCNCC2)C[C@H]1NC(=O)c1cc(C2CC2)on1` (racemic) [compound 337, (±)-cis-5-cyclopropyl-N-{4-methyl-1-[2-(piperidin-4-yl)ethyl]pyrrolidin-3-yl}-1,2-oxazole-3-carboxamide], the IC50 was 10.6 µM.
In the case of `C[C@H]1CN(CC2CCN(C)CC2)C[C@H]1NC(=O)c1cc(C2CC2)on1` (racemic) [compound 338, (±)-cis-5-cyclopropyl-N-{4-methyl-1-[(1-methylpiperidin-4-yl)methyl]pyrrolidin-3-yl}-1,2-oxazole-3-carboxamide], the IC50 is reported as over 50 µM.
With `C[C@H]1CN(c2ncccn2)C[C@H]1NC(=O)c1cc(C2CC2)on1` (racemic) [compound 339, (±)-cis-5-cyclopropyl-N-[4-methyl-1-(pyrimidin-2-yl)pyrrolidin-3-yl]-1,2-oxazole-3-carboxamide] the IC50 was over 50 µM.
For `C[C@H]1CN(c2ccncn2)C[C@H]1NC(=O)c1cc(C2CC2)on1` (racemic) [compound 340, (±)-cis-5-cyclopropyl-N-[4-methyl-1-(pyrimidin-4-yl)pyrrolidin-3-yl]-1,2-oxazole-3-carboxamide], the IC50 was over 50 µM.
